Results: US8741339B2, “Active targeting polymer micelle encapsulating drug, and pharmaceutical composition” (Nonocarrier Co., Ltd., priority 2008, dated 2014)
Values after ≈ are worked out from the molar mass of the structure shown.

Experiments:
Format in all cases: cell-based
[1] = tested on: human liver cancer HepG2 cell; assay: Cytotoxicity test 4 (WST method, 8 hours with sample liquid); details: total cultivation 72 hours, as CPT concentration
[2] = tested on: human prostate cancer DU145 cell; assay: Cytotoxicity test 3 (WST method, 8 hours with sample liquid); details: DU-145, total cultivation 72 hours, as CPT concentration
[3] = tested on: human breast cancer MDA-MB-231 cell; assay: Cytotoxicity test 5 (WST method, 8 hours with sample liquid); details: MDA-MB-231, human breast cancer, total cultivation 72 hours, as CPT concentration
Protocol: The human breast cancer MDA-MB-231 cell, which had been suspended in 90 μIL of a medium, was seeded to a 96-well plate so that the cell would be contained at a concentration of about 5000 cells per well, and cultivated under an atmosphere of 37° C. and 5% CO2 overnight. The medium was formed of RPMI1640 (Gibco™, Invitrogen) and 10% Fetal Bovine Serum (FBS, biowest). Subsequently, each of sample liquids at various DTX concentrations obtained by diluting the micelle solution in Example 2 and the micelle solution in Comparative Example 1 with the medium was added to each well (10 μL per well), […] […] From each well, the absorbance (Abs450) of light at a wavelength of 450 nm was measured, and the cell growth rate (% cell growth) was calculated based on the below-indicated mathematical equation. It should be noted that “Abs450 value of control” in the mathematical equation means an absorbance obtained from a well in which the above-mentioned cultivation has been performed using a culture liquid free of DTX. % cell growth=[(Abs450 value after addition of sample liquid)−(Abs450 value of blank)]/[(Abs450 value of control)−(Abs450 value of blank)]×100 […]

CC[C@@]1(O)C(=O)OCc2c1cc1n(c2=O)Cc2cc3ccccc3nc2-1 [Solution, camptothecin]
GI50 [1]: 0.04 mg/L (≈ 0.115 µM) | GI50 [2]: 0.01 mg/L (≈ 0.0287 µM) | GI50 [3]: 1 mg/L (≈ 2.87 µM)
